Results on 26 molecules are retold here after PubChem BioAssay AID743334 (Broad Institute, 2014).

Assay [1] relates to C2C12 myotubes ATP, CellTiter-Glo luminescence, 48 h. As to the kind of experiment: ATP change in C2C12 myotubes without statin, dose response, counter-screen for statin myotoxicity suppressor project, cell-based, no simvastatin, luminescence, dry powder (AID 743334).
Experiment in assay [2]: as above
The conditions noted are these: C2C12 myotubes ATP, CellTiter-Glo luminescence, 48 h; for max activity: active compounds read high.

Activity calls are given as the source filed them.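 How the source made its calls: active means curve reaches 40% rise within the top valid dose, in every run; inconclusive means runs give conflicting calls; inactive means opposite-direction activity, or every run inactive.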 Where only a bound is given, the exact number is not on record here.

As to `COc1ccc(S(=O)(=O)Nc2ccc3c(c2)CC(=O)N([C@H](C)CO)C[C@H](C)[C@@H](CN(C)Cc2ccc(Cl)c(Cl)c2)O3)cc1`, the AC40 in assay [1] is > 19.5 µM (inactive).

With `C[C@H]1CN([C@@H](C)CO)C(=O)c2cc(NC(=O)Nc3cccc4ccccc34)ccc2O[C@H]1CN(C)Cc1ccc(C(=O)Nc2ccccc2N)cc1`, the AC40 in assay [1] was > 19.5 µM (inactive).

On to `N#C[C@@H]1[C@@H](c2ccc(-c3cccc(F)c3)cc2)[C@H](CO)N1C(=O)NC1CCCC1`, for which the AC40 in assay [1] is > 21 µM (inactive).

With `C[C@@H]1CN([C@@H](C)CO)C(=O)c2cc(NC(=O)Nc3cccc4ccccc34)ccc2O[C@@H]1CN(C)Cc1ccc(C(=O)Nc2ccccc2N)cc1`, the AC40 in assay [1] was > 21 µM (inactive).

As to `C[C@H]1CN([C@@H](C)CO)C(=O)c2cc(C#Cc3ccncc3)cnc2O[C@@H]1CN(C)CC1CCCC1`, in assay [1], the AC40 is > 19.5 µM (inactive).

For `C[C@H](CO)N1C[C@H](C)[C@H](CN(C)CC2CCCCC2)Oc2ccc(NC(=O)CCCCCC(=O)Nc3ccccc3N)cc2CC1=O`, the AC40 in assay [1] is > 19.5 µM (inactive).

Regarding `C[C@H](CO)N1C[C@H](C)[C@@H](CN(C)Cc2ccc(Cl)c(Cl)c2)Oc2ccc(NC(=O)C3CC3)cc2CC1=O`, the AC40 in assay [1] is > 19.5 µM (inactive).

As to `COc1ccc(C#Cc2cnc3c(c2)C(=O)N([C@H](C)CO)C[C@H](C)[C@@H](CN(C)C(=O)Nc2cccc(OC)c2)O3)cc1`, the max activity in assay [2] was 8% (inactive).

In the case of `C[C@H]1CN([C@@H](C)CO)C(=O)Cc2cc(NC(=O)CCCCCC(=O)Nc3ccccc3N)ccc2O[C@H]1CN(C)Cc1ccc(C(F)(F)F)cc1`, in assay [2] (at 21 µM (top of the series)), the ATP level change, positive = increase is 5.44% (inactive).

On to `C[C@H]1CN([C@@H](C)CO)C(=O)Cc2cc(NC(=O)CCCCCC(=O)Nc3ccccc3N)ccc2O[C@H]1CN(C)Cc1ccccc1`, for which, in assay [1], the AC40 is 18 µM (inactive).

As to `C/C=C/c1ccc([C@H]2[C@@H](CO)N(C(=O)NC3CCCC3)[C@H]2C#N)cc1`, the max activity in assay [2] was -3.18% (inactive).

With `N#C[C@@H]1[C@@H](c2ccc(C#CC3CCCC3)cc2)[C@H](CO)N1S(=O)(=O)c1ccccc1`, the max activity in assay [2] is -8.85% (inactive).

Regarding `Cc1noc(C)c1S(=O)(=O)Nc1ccc2c(c1)CC(=O)N([C@H](C)CO)C[C@@H](C)[C@@H](CN(C)Cc1ccc(-c3ccccc3)cc1)O2`, in assay [2] (at 21 µM (top of the series)), the ATP level change, positive = increase was 10.4% (inactive).

`C[C@H]1CN([C@@H](C)CO)C(=O)Cc2cc(NC(=O)Nc3cccc4ccccc34)ccc2O[C@H]1CN(C)Cc1ccc(C(=O)Nc2ccccc2N)cc1`: the max activity in assay [2] was 10.8% (inactive).

With `C[C@@H]1CN([C@H](C)CO)C(=O)c2cc(NC(=O)Nc3cccc4ccccc34)ccc2O[C@@H]1CN(C)Cc1ccc(C(=O)Nc2ccccc2N)cc1`, the max activity in assay [2] is 13.3% (inactive).

`COc1ccc(CN(C)C[C@H]2Oc3ccc(NS(=O)(=O)c4ccc(Cl)cc4)cc3CC(=O)N([C@@H](C)CO)C[C@@H]2C)cc1`: the AC40 in assay [1] is > 19.5 µM (inactive).

As for `COc1ccc(S(=O)(=O)Nc2cccc3c2O[C@H](CN(C)C(=O)Nc2ccc(F)cc2)[C@H](C)CN([C@@H](C)CO)C3=O)cc1`, in assay [2] (at 19.5 µM (top of the series)), the ATP level change, positive = increase is 14.4% (inactive).

Consider `C[C@H](CO)N1C[C@H](C)[C@H](CN(C)Cc2ccc3c(c2)OCO3)Oc2ccc(NC(=O)CCCCCC(=O)Nc3ccccc3N)cc2CC1=O`, for which the ATP level change, positive = increase in assay [2] (at 18 µM (top of the series)) is 12% (inactive).

As for `C[C@@H]1CN([C@H](C)CO)C(=O)Cc2cc(NC(=O)CCCCCC(=O)Nc3ccccc3N)ccc2O[C@H]1CN(C)Cc1ccc(Oc2ccccc2)cc1`, the max activity in assay [2] was -0.786% (inactive).

On to `N#C[C@H]1[C@H](c2ccc(-c3cccc(F)c3)cc2)[C@H](CO)N1C(=O)NC1CCCC1`, for which, in assay [2], the max activity was -7.45% (inactive).

Regarding `N#C[C@H]1[C@H](c2ccc(-c3cccc(F)c3)cc2)[C@@H](CO)N1C(=O)NC1CCCC1`, in assay [2], the max activity is 1.15% (inactive).

Regarding `C[C@@H]1CN([C@H](C)CO)C(=O)Cc2cc(NS(=O)(=O)c3ccc(Cl)cc3)ccc2O[C@H]1CN(C)Cc1ccccc1`, in assay [2] (at 19.5 µM (top of the series)), the ATP level change, positive = increase is 13% (inactive).

With `Cc1ccc(S(=O)(=O)N(C)C[C@@H]2Oc3ccc(NS(=O)(=O)c4ccc(Cl)cc4)cc3C(=O)N([C@H](C)CO)C[C@@H]2C)cc1`, the ATP level change, positive = increase in assay [2] (at 19.5 µM (top of the series)) was -0.772% (inactive).

For `C[C@@H]1CN([C@@H](C)CO)C(=O)c2cccc(NC(=O)Nc3ccc4c(c3)OCO4)c2O[C@H]1CN(C)Cc1ccc(C(=O)Nc2ccccc2N)cc1`, the ATP level change, positive = increase in assay [2] (at 19.5 µM (top of the series)) is 16.4% (inactive).

In the case of `N#C[C@@H]1[C@@H](c2ccc(-c3ccc(F)cc3)cc2)[C@H](CO)N1C(=O)Cc1ccccc1`, in assay [2] (at 19.5 µM (top of the series)), the ATP level change, positive = increase is 2.91% (inactive).

As to `C[C@H]1CN([C@@H](C)CO)C(=O)c2cc(N(C)C)ccc2O[C@@H]1CN(C)Cc1ccc(C(=O)Nc2ccccc2N)cc1`, the ATP level change, positive = increase in assay [2] (at 19.5 µM (top of the series)) was 3.03% (inactive).
